In patent US7601746B2 (Shionogi & Co., Ltd., priority 2003, dated 2009):
pEC50: −log10 of the molar value.

Molecular target: T1, human TPO receptor (hTPOR) (Homo sapiens, UniProt P40238)
T1 construct: expressed in transfected cells; host or cells: BaF-B03 (murine IL-3 dependent cell line)
T1 sequence (P40238 26-635): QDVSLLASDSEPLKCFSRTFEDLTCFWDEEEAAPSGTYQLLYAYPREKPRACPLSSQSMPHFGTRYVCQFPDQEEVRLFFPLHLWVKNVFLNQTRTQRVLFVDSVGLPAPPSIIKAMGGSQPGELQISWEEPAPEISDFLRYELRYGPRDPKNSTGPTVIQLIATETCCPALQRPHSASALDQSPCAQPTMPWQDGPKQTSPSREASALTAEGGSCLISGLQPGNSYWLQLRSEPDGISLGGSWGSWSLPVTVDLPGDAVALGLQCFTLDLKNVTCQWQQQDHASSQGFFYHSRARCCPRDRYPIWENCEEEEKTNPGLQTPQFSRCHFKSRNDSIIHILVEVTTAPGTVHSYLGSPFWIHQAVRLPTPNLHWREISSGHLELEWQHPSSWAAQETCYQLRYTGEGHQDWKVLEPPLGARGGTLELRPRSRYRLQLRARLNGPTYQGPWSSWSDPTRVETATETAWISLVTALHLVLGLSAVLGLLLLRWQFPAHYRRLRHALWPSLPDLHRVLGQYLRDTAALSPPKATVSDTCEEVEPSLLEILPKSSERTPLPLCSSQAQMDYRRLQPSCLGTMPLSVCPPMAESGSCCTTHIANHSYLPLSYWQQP
Test: Thrombopoietic activity: proliferation of TPO dependent BaF/hTPOR cells (WST-1, absorbance at 450 nm)
Assay type: cell-based
Conditions: 20 h + 4 h WST-1, ED50 = half concentration of the concentration showing the maximum thrombopoietic activity, Table 1
In short: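 Proliferation read-out: WST-1 absorbance at 450 nm after 20 h compound exposure plus 4 h reagent, using IL-3-deprived BaF/hTPOR cells (5×10^4 per well) dependent on human TPO receptor signalling. ED50 defined as half the concentration producing maximal activity.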

SMILES	pEC50
CCCCCCCCCC(OC)c1cccc(-c2csc(NC(=O)c3cc(Cl)c(C=C(C)C(=O)O)c(Cl)c3)n2)c1F (stereo not shown) [Compound B61, 3-(2,6-dichloro-4-{4-[2-fluoro-3-(1-methyloxydecyl)phenyl]thiazol-2-ylcarbamoyl}phenyl)-2-methylacrylic acid]	9.12
CCOC(CC(C)(C)C)c1cccc(-c2csc(NC(=O)c3cc(Cl)c(C=C(C)C(=O)O)c(Cl)c3)n2)c1F (stereo not shown) [Compound B62, 3-(2,6-dichloro-4-{4-[2-fluoro-3-(1-ethyloxy-3,3-dimethylbutyl)phenyl]thiazol-2-ylcarbamoyl}phenyl)-2-methylacrylic acid]	9.12
COC(c1cccc(-c2csc(NC(=O)c3cc(Cl)c(C=C(C)C(=O)O)c(Cl)c3)n2)c1F)C(C)(C)C (stereo not shown) [Compound B64, 3-(2,6-dichloro-4-{4-[2-fluoro-3-(1-methyloxy-2,2-dimethylpropyl)phenyl]thiazol-2-ylcarbamoyl}phenyl)-2-methylacrylic acid]	8.92
CCOCCCCOC(CC)c1cccc(-c2csc(NC(=O)c3cc(Cl)c(C=C(C)C(=O)O)c(Cl)c3)n2)c1F (stereo not shown) [Compound B65, 3-[2,6-dichloro-4-(4-{3-[1-(4-ethyloxybutyloxy)propyl]-2-fluorophenyl]thiazol-2-ylcarbamoyl}phenyl)-2-methylacrylic acid]	8.98
CC(=Cc1c(Cl)cc(C(=O)Nc2nc(-c3cccc(CCCOCC(C)(C)C)c3F)cs2)cc1Cl)C(=O)O [Compound B66, 3-[2,6-dichloro-4-(4-{3-[3-(2,2-dimethylpropyloxy)propyl]-2-fluorophenyl]thiazol-2-ylcarbamoyl}phenyl)-2-methylacrylic acid]	9.04
CCCCCOC(CC)c1cccc(-c2csc(NC(=O)c3cc(Cl)c(C=C(C)C(=O)O)c(Cl)c3)n2)c1F (stereo not shown) [Compound B67, 3-[2,6-dichloro-4-(4-{3-[1-n-pentyloxypropyl]-2-fluorophenyl}thiazol-2-ylcarbamoyl)phenyl]-2-methylacrylic acid]	9.32
CCCCCCC(OC)c1cccc(-c2csc(NC(=O)c3cc(Cl)c(C=C(C)C(=O)O)c(Cl)c3)n2)c1F (stereo not shown) [Compound B68, 3-(2,6-dichloro-4-{4-[2-fluoro-3-(1-methyloxyheptyl)phenyl]thiazol-2-ylcarbamoyl}phenyl)-2-methylacrylic acid]	9.09
CCCCCCCC(OC)c1cccc(-c2csc(NC(=O)c3cc(Cl)c(C=C(C)C(=O)O)c(Cl)c3)n2)c1F (stereo not shown) [Compound B69, 3-(2,6-dichloro-4-{4-[2-fluoro-3-(1-methyloxyoctyl)phenyl]thiazol-2-ylcarbamoyl}phenyl)-2-methylacrylic acid]	9.11
CCCCCOC(CCCC)c1cccc(-c2csc(NC(=O)c3cc(Cl)c(C=C(C)C(=O)O)c(Cl)c3)n2)c1F (stereo not shown) [Compound B70, 3-(2,6-dichloro-4-{4-[2-fluoro-3-(1-n-pentyloxypentyl)phenyl]thiazol-2-ylcarbamoyl}phenyl)-2-methylacrylic acid]	9.37
CCCCC(OCC)c1cccc(-c2csc(NC(=O)c3cc(Cl)c(C=C(C)C(=O)O)c(Cl)c3)n2)c1F (stereo not shown) [Compound B71, 3-(2,6-dichloro-4-{4-[3-(1-ethyloxypentyl)-2-fluorophenyl]thiazol-2-ylcarbamoyl}phenyl)-2-methylacrylic acid]	9.00
CCCCCCCCC(OC)c1cccc(-c2csc(NC(=O)c3cc(Cl)c(C=C(C)C(=O)O)c(Cl)c3)n2)c1F (stereo not shown) [Compound B72, 3-(2,6-dichloro-4-{4-[2-fluoro-3-(1-methyloxynonyl)phenyl]thiazol-2-ylcarbamoyl}phenyl)-2-methylacrylic acid]	9.11
CCCCCC(CCc1cccc(-c2csc(NC(=O)c3cc(Cl)c(C=C(C)C(=O)O)c(Cl)c3)n2)c1F)OC (stereo not shown) [Compound B73, 3-(2,6-dichloro-4-{4-[2-fluoro-3-(3-methyloxyoctyl)phenyl]thiazol-2-ylcarbamoyl}phenyl)-2-methylacrylic acid]	8.87
CCC(OCCC(C)C)c1cccc(-c2csc(NC(=O)c3cc(Cl)c(C=C(C)C(=O)O)c(Cl)c3)n2)c1F (stereo not shown) [Compound B74, 3-[2,6-dichloro-4-(4-{2-fluoro-3-[1-(3-methylbutyloxy)proptyl]phenyl}thiazol-2-ylcarbamoyl)phenyl]-2-methylacrylic acid]	9.10
CCCCCCCCCCOCc1cccc(-c2csc(NC(=O)c3cc(Cl)c(C=C(C)C(=O)O)c(Cl)c3)n2)c1F [Compound B76, 3-{2,6-dichloro-4-[4-(3-n-decyloxymethyl-2-fluorophenyl)thiazol-2-ylcarbamoyl]phenyl}-2-methylacrylic acid]	8.53
CCCCCOCc1cccc(-c2csc(NC(=O)c3cc(Cl)c(C=C(C)C(=O)O)c(Cl)c3)n2)c1F [Compound B77, 3-{2,6-dichloro-4-[4-(2-fluoro-3-{n-pentyloxymethyl}phenyl)thiazol-2-ylcarbamoyl]phenyl}-2-methylacrylic acid]	8.51
CCCOC(CCC)c1cccc(-c2csc(NC(=O)c3cc(Cl)c(C=C(C)C(=O)O)c(Cl)c3)n2)c1F (stereo not shown) [Compound B78, 3-(2,6-dichloro-4-{4-[2-fluoro-3-(1-n-propyloxybutyl)phenyl]thiazol-2-ylcarbamoyl}phenyl)-2-methylacrylic acid]	9.01
CCCCOC(CCC)c1cccc(-c2csc(NC(=O)c3cc(Cl)c(C=C(C)C(=O)O)c(Cl)c3)n2)c1F (stereo not shown) [Compound B79, 3-(4-{4-[3-(1-n-butyloxybutyl)-2-fluorophenyl]thiazol-2-ylcarbamoyl}-2,6-dichlorophenyl)-2-methylacrylic acid]	9.11
CCCCCOC(CCC)c1cccc(-c2csc(NC(=O)c3cc(Cl)c(C=C(C)C(=O)O)c(Cl)c3)n2)c1F (stereo not shown) [Compound B80, 3-(2,6-dichloro-4-{4-[2-fluoro-3-(1-n-pentyloxybutyl)phenyl]thiazol-2-ylcarbamoyl}phenyl)-2-methylacrylic acid]	9.15
CCCOC(CC)c1cccc(-c2csc(NC(=O)c3cc(Cl)c(C=C(C)C(=O)O)c(Cl)c3)n2)c1F (stereo not shown) [Compound B81, 3-(2,6-dichloro-4-{4-[2-fluoro-3-(1-n-propyloxypropyl)phenyl]thiazol-2-ylcarbamoyl}phenyl)-2-methylacrylic acid]	8.86
CCCCOC(CC)c1cccc(-c2csc(NC(=O)c3cc(Cl)c(C=C(C)C(=O)O)c(Cl)c3)n2)c1F (stereo not shown) [Compound B82, 3-(4-{4-[3-(1-n-butyloxypropyl)-2-fluorophenyl]thiazol-2-ylcarbamoyl}-2,6-dichlorophenyl)-2-methylacrylic acid]	8.97
CCCCCCOC(CC)c1cccc(-c2csc(NC(=O)c3cc(Cl)c(C=C(C)C(=O)O)c(Cl)c3)n2)c1F (stereo not shown) [Compound B83, 3-(2,6-dichloro-4-{4-[2-fluoro-3-(1-n-hexyloxypropyl)phenyl]thiazol-2-ylcarbamoyl}phenyl)-2-methylacrylic acid]	9.14
CC(=Cc1c(Cl)cc(C(=O)Nc2nc(-c3cccc(CCCOCCCC(C)C)c3F)cs2)cc1Cl)C(=O)O [Compound B84, 3-[2,6-dichloro-4-(4-[2-fluoro-3-[3-(4-methylpentyloxy)propyl]phenyl]thiazol-2-ylcarbamoyl)phenyl]-2-methylacrylic acid]	8.99
CC(=Cc1c(Cl)cc(C(=O)Nc2nc(-c3cccc(CCCOCCC(C)(C)C)c3F)cs2)cc1Cl)C(=O)O [Compound B85, 3-[2,6-dichloro-4-(4-[3-[3-(3,3-dimethylbutyloxy)propyl]-2-fluorophenyl]thiazol-2-ylcarbamoyl)phenyl]-2-methylacrylic acid]	9.06
CCCCC(OCCC)c1cccc(-c2csc(NC(=O)c3cc(Cl)c(C=C(C)C(=O)O)c(Cl)c3)n2)c1F (stereo not shown) [Compound B86, 3-(2,6-dichloro-4-{4-[2-fluoro-3-(1-n-propyloxypentyl)phenyl]thiazol-2-ylcarbamoyl}phenyl)-2-methylacrylic acid]	9.20
CCCCOC(CCCC)c1cccc(-c2csc(NC(=O)c3cc(Cl)c(C=C(C)C(=O)O)c(Cl)c3)n2)c1F (stereo not shown) [Compound B87, 3-(4-{4-[3-(1-n-butyloxypentyl)-2-fluorophenyl]thiazol-2-ylcarbamoyl}-2,6-dichlorophenyl)-2-methylacrylic acid]	9.21
CCC(CC)COCCCc1cccc(-c2csc(NC(=O)c3cc(Cl)c(C=C(C)C(=O)O)c(Cl)c3)n2)c1F [Compound B88, 3-[2,6-dichloro-4-(4-[3-[3-(2-ethylbutyloxy)propyl]-2-fluorophenyl]thiazol-2-ylcarbamoyl)phenyl]-2-methylacrylic acid]	8.51
CC(=Cc1c(Cl)cc(C(=O)Nc2nc(-c3cccc(CCCOCCC4CCCC4)c3F)cs2)cc1Cl)C(=O)O [Compound B89, 3-[2,6-dichloro-4-(4-[3-[3-(2-cyclopentylethyloxy)propyl]-2-fluorophenyl]thiazol-2-ylcarbamoyl)phenyl]-2-methylacrylic acid]	8.82
CCCCCOCCCc1cccc(-c2csc(NC(=O)c3cc(Cl)c(C=C(C)C(=O)O)c(Cl)c3)n2)c1F [Compound B90]	8.94
